# Data published in ChEMBL document CHEMBL4052678, “Urotensin core mimics that modulate the biological activity of urotensin-II related peptide but not urotensin-II” (Bioorg Med Chem Lett, 2017).
# Activity calls are given as the source filed them. No cut-off for these calls is given here. Starred links: 1 amine or outer side, 2 acyl side, 3 side chain; linkers in the order of their positions; H or OH if unused. Non-standard residues stand in square brackets, D forms with d. Residues, ends and D or L forms follow the SMILES beside them. X1 = O=C(Cn1cc(CN[*:1])nn1)[*:2]
# Assays:
# Assay type in all cases: functional
# Aorta [1] = experiment: Inhibition of human urotensin II-induced contraction in Sprague-Dawley rat aortic rings assessed as Emax for urotensin II relative to KCl-induced contraction (reference value: 8.59 +/- 0.08)
# Aorta [2] = experiment: Inhibition of urotensin II-related peptide-induced contraction in Sprague-Dawley rat aortic rings assessed as Emax for urotensin II-related peptide relative to KCl-induced contraction (reference value: 8.07 +/- 0.03)
# Aorta [3] = experiment: Inhibition of human urotensin II-induced contraction in Sprague-Dawley rat aortic rings assessed as Emax for urotensin II at 30 umol relative to KCl-induced contraction (reference value: 104 +/- 4%)
# Aorta [4] = experiment: Inhibition of urotensin II-related peptide-induced contraction in Sprague-Dawley rat aortic rings assessed as Emax for urotensin II-related peptide at 30 umol relative to KCl-induced contraction (reference value: 113 +/- 2%)
# Aorta [5] = experiment: Induction of contraction in Sprague-Dawley rat aortic rings at 30 umol relative to KCl-induced contraction
# Aorta [6] = experiment: Induction of contraction in Sprague-Dawley rat aortic rings at 25 umol relative to KCl-induced contraction
Compound,EC50 (Aorta [1]) [nM],EC50 (Aorta [2]) [nM],Emax (Aorta [3]) [%],Emax (Aorta [4]) [%],Activity (Aorta [5]),Activity (Aorta [6])
NCCCC[C@@H]1NC(=O)[C@H](Cc2c[nH]c3ccccc23)NC(=O)Cn2cc(nn2)CNC(=O)[C@H](Cc2ccc(O)cc2)NC1=O,1.35,3.02,97,90,Active,
NCCCC[C@@H]1NC(=O)[C@H](Cc2c[nH]c3ccccc23)NC(=O)[C@H](Cc2ccccc2)NC(=O)Cn2cc(nn2)CNC(=O)[C@H](Cc2ccc(O)cc2)NC1=O (cyclo(FWKY[X1])),4.27,0.501,96,54,,Active
